Assay results taken from article PMC4057235, “Development and Evaluation of Small Peptidomimetic Ligands to Protease-Activated Receptor-2 (PAR2) through the Use of Lipid Tethering” (PLoS ONE, 2014).
One block for each compound: values may come before it.

Key:
PAR2 [1] = biological target: T1, PAR2 (Homo sapiens, UniProt P55085); experiment: Ca2+ desensitization assay in 16HBE14o- cells with 2at-LIGRL-NH2; type: cell-based; conditions: compound at its activating concentration, ATP 5 µM
T1 construct: 16HBE14o- cells on E-plates in growth medium; endogenous in cells; host or cells: 16HBE14o- cells
T1 sequence (P55085 26-397): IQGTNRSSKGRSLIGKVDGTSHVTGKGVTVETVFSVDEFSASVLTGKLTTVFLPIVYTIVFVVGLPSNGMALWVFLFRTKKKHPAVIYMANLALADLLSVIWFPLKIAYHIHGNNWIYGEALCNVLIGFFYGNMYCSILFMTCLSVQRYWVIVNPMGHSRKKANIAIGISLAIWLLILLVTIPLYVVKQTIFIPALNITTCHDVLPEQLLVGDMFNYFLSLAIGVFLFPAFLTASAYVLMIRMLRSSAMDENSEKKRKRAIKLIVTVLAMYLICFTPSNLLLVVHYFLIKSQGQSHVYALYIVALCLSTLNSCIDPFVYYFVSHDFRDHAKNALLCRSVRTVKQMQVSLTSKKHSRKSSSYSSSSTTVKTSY
Method: 16HBE14o- cells or CHO cells were loaded with fura 2-acetomethoxyl ester (CalBiochem or Molecular Probes) for 30 min at room temperature. Cells were washed with HBSS and allowed to sit for at least 20 min prior to digital imaging. For activation and desensitization assay experiments using 16HBE14o- cells, [Ca^2+]i was measured as previously described. Experiments consisted of 20 sec of recording of cells in HBSS to determine resting [Ca^2+]i, followed by a 10 sec wash to introduce ligand and up to 10 min of recording for ligand washes required for desensitization experiments. Briefly, fura-2 fluorescence was observed on an Olympus IX70 microscope with a 40X oil immersion objective after alternating excitation between 340 and 380 nm by a 75 W Xenon lamp linked to a Delta Ram V illuminator (PTI) and a gel optic line. Intracellular Ca^2+ concentration ([Ca^2+]i) for each individual cell in the field of view was calculated by ratiometric analysis of fura-2 fluorescence using equations originally published in [31]. Individual ratios were calculated every sec throughout the experiments. […] Percent activation graphs are determined from 3–6 experiments for each ligand concentration. […] Ca^2+ imaging of CHO cells was similar; each ligand concentration tested included at least 3 experiments and a minimum of 200 cells analyzed during each experiment. […]

PAR2 [2] = biological target: T1, PAR2; parameters: method as in PMID 21467041; conditions: 16HBE14o- cells; read-out: RTCA EC50; cited from earlier work
MrgprC11 [3] = biological target: T2, MrgprC11 (Mus musculus, UniProt Q8CIP3); experiment: Ca2+ response in MrgprC11 transfected CHO cells; type: cell-based
T2 construct: An MrgprC11 cDNA in pcDNA3.1 vector was transfected into CHO cells; expressed in transfected cells; host or cells: CHO cells, transient transfection with Lipofectamine 2000
T2 sequence (Q8CIP3 1-322): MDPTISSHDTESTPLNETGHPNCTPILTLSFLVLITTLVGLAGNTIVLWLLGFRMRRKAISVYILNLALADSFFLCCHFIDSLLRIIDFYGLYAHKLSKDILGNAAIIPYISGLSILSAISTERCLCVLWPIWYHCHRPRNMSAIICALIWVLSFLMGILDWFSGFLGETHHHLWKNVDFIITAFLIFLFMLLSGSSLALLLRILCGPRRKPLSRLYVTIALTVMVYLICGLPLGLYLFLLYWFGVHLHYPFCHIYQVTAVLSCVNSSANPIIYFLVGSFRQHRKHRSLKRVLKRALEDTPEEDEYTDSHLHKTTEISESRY
Method: CHO cells were cultured in DMEM supplemented with 10% FBS and 1% penicillin and streptomycin at 37°C in a 5% CO2 atmosphere. One day before transfection, CHO cells were plated in a 60 mm cell culture dish at a concentration of 1×10^5 cells/cm^2 and grown without antibiotics. An MrgprC11 cDNA in pcDNA3.1 vector was transfected into CHO cells using Lipofectamine™ 2000 (Invitrogen) prior to transfer to coverslips for experiments. Coverslips were coated with 0.1 mg/ml poly-D-lysine (from 2 mg/ml stock) and incubated for 1 hr at room temperature, after which the coating solution was removed and the coverslips were washed twice with double distilled water. CHO cells were seeded on coverslips at a concentration of 1×10^5 cells/cm^2 6 hr after transfection. Transfected cells were incubated for 24 hr prior to Ca^2+ imaging.
16HBE14o- cells or CHO cells were loaded with fura 2-acetomethoxyl ester (CalBiochem or Molecular Probes) for 30 min at room temperature. Cells were washed with HBSS and allowed to sit for at least 20 min prior to digital imaging. For activation and desensitization assay experiments using 16HBE14o- cells, [Ca^2+]i was measured as previously described. Experiments consisted of 20 sec of recording of cells in HBSS to determine resting [Ca^2+]i, followed by a 10 sec wash to introduce ligand and up to 10 min of recording for ligand washes required for desensitization experiments. Briefly, fura-2 fluorescence was observed on an Olympus IX70 microscope with a 40X oil immersion objective after alternating excitation between 340 and 380 nm by a 75 W Xenon lamp linked to a Delta Ram V illuminator (PTI) and a gel optic line. Intracellular Ca^2+ concentration ([Ca^2+]i) for each individual cell in the field of view was calculated by ratiometric analysis of fura-2 fluorescence using equations originally published in [31]. Individual ratios were calculated every sec throughout the experiments. [Ca^2+]i traces over time are averaged [Ca^2+]i of all cells within a field of view (80–120) and are representative of at least 3 experiments. Cells were considered activated by the ligand if their resting [Ca^2+]i was increased above a 200 nM threshold, a 2–4 fold increase above typical resting values. Percent activation graphs are determined from 3–6 experiments for each ligand concentration. Time to threshold in individual cells represent between 200–400 cells from at least 3 experiments at each ligand concentration. Ca^2+ imaging of CHO cells was similar; each ligand concentration tested included at least 3 experiments and a minimum of 200 cells analyzed during each experiment.

MrgprC11 [4] = biological target: T2, MrgprC11; parameters: method as in PMID 21775281; conditions: cited from earlier work
[5] = parameters: method as in PMID 20873792; conditions: at high concentrations (100 µM); cited from earlier work

Ca2+ response (% of cells) (MrgprC11 [3]; 1 µM): no response | Ca2+ response (% of cells) (MrgprC11 [3]; 10 µM): 10%
Compound: 2at-LIGRL-NH2 [reference compound]
Ca2+ response after PAR2 desensitization with 50 µM 2at-LIGRL-NH2 (PAR2 [1]): did not result in an increase of [Ca^2+]i | EC50 (PAR2 [2]): 310 nM

Compound: SLIGR-NH2
MrgprC11 signaling (MrgprC11 [4]): lost MrgprC11 signaling capacity

Compound: Nc1ncnc2c1ncn2[C@@H]1O[C@H](COP(=O)(O)OP(=O)(O)OP(=O)(O)O)[C@@H](O)[C@H]1O [ATP]
Ca2+ response after PAR2 desensitization with 50 µM 2at-LIGRL-NH2 (PAR2 [1]): remained an effective agonist

Compound: CCC(C)C(NC(=O)C(CC1CCCCC1)NC(=O)c1ccno1)C(N)=O (stereo not drawn) [Compound 5io-Cha-I-NH2]
solubility [5]: lack of solubility

Compound: SLIGRL-NH2 (H-SLIGRL-NH2)
EC50 (MrgprC11 [4]; read-out: MrgprC11 activation EC50): 10000 nM

Compound: 6-aminonicotinyl-LIGRL-NH2
EC50 (PAR2 [2]): 430 nM
